Data as given in US11752125B2, “Anti-neuroinflammatory and protective compounds in Achillea fragrantissima” (THE STATE OF ISRAEL MINISTRY OF AGRICULTURE & RURAL …, priority 2013, dated 2023).

Columns and labels:
N2a neuronal cells = experiment: Glutamate-induced neuronal cell death (LDH); format: cell-based; details: LDH 20 hr later
Protocol: Grow N2a cells in DMEM (high glucose, 225 ml), Opti-MEM (250 ml) containing 1% Fetal Bovine Serum, 2 mM L-Glutamine, 100 U/ml penicillin and 100 micrograms/mL streptomycin.
Treat N2a neuronal cells with AcA or TTF.
Two hr later add 100 micromolars of freshly diluted glutamate;
Incubate the culture for 20 hr (37° C., 5% CO2);
Measure cytotoxicity by the LDH method
N2a neuronal cells were treated with glutamate (100 μM) and TTF. Cytotoxicity was measured 20 hr later. The results are shown in FIG. 16 and are the mean±SEM of one experiment (n=8).
Achillolide A was added to N2a cells before (−2 h, −1 h) concomitant (0) or after (1 h, 2 h) the addition of glutamate. Cytotoxicity was measured 20 h later by the levels of LDH in the conditioned media. Results are means±SEM of two experiments (n=16). **P<0.01, ***P<0.001, compared to cells that were treated with glutamate only.
N2a neuronal cells were treated with Aβ25-35 (25 μM) and achillolide A. Cytotoxicity was measured 20 hr later. The results are the means±SEM of two different experiments (n=16).
N2a neuronal cells were treated with Aβ25-35 (25 μM) and achillolide A or memantine. Cytotoxicity was measured 20 hr later. The results are the mean±SEM of two different experiments (n=16) for AcA and one experiment (n=8) for memantine.

astrocytes = experiment: Cellular antioxidant activity (ABAP peroxyl radicals) in astrocytes; format: cell-based; details: for effect on ABAP-generated peroxyl radical (ROS) fluorescence: astrocytes, ABAP 0.6 mM
Protocol: In the cellular antioxidant activity (CAA) assay, cell viability was determined by a modification of the crystal violet assay (Kueng et al., 1989) as follows. At the end of cell treatments, cells were fixed with 150 μL of 5% (v/v) formaldehyde (in PBS) for 15 min at room temperature. Plates were washed by submersion in de-ionized water, dried and stained for 15 min with 150 μL of a 1% crystal violet solution. After careful aspiration of the crystal violet solution the plates were washed with de-ionized water, and dried prior to the solubilization of the bound dye with 150 μL of a 33% aqueous glacial acetic acid solution. The optical density of the plates was measured at 540 nm (with a 690 nm reference filter) in a microplate spectrophotometer.
Intracellular ROS production was detected using the non-fluorescent cell permeating compound, 2′7′-dichlorofluorescein diacetate (DCF-DA). DCF-DA is hydrolyzed by intracellular esterases and then oxidized by ROS to a fluorescent compound 2′-7′-DCF. Peroxyl radicals are generated by thermolysis of 2,2′-Azobis(amidinopropane) (ABAP) at physiological temperature. ABAP decomposes at approximately 1.36×10^−6s^−1 at 37° C., producing at most 1×10^12 radicals/mL/s (Bowry and Stocker, 1993; Niki et al., 1986; Thomas et al., 1997). Astrocytes (300,000 cells/well) were plated in DMEM containing 2% FBS, 8.4 mM HEPES, 2 mM glutamine, 100 U/mL penicillin and 100 μg/mL streptomycin, onto 24 well plates. In order to measure the ability of TTF to enter the cells and prevent the formation of dichlorofluorescein (DCF) by ABAP-generated peroxyl radicals, cells were incubated for 1 h with TTF. […] The fluorescence, which indicates ROS levels, was measured in a plate reader with excitation at 485 nm and emission at 520 nm.
2. […] Read “time 0” fluorescence (Ex: 485 nm and Em: 528 nm); 7. […] Read fluorescence at 3, 6, and 24 hr Ex: 485 nm and Em: 528 nm; 9. […]
Astrocytes were incubated with TTF or quercetin for 2 h. […] ABAP (0.6 mM) was added to the culture and the fluorescence intensity, representing ROS levels was measured. […]

Structure (SMILES) | effect on glutamate-induced cytotoxicity (N2a neuronal cells) | effect on ABAP-generated peroxyl radical (ROS) fluorescence (astrocytes) | cell viability in the cellular antioxidant activity assay (astrocytes; crystal violet, 20 h after ABAP)
C=C1CCC2=C(CO)C(=O)O[C@H]2/C=C(\C)[C@H](OC(C)=O)CC1=O [achillolide A] | prevents the cytotoxic effect at nanomolar concentrations |  | 
O=c1c(O)c(-c2ccc(O)c(O)c2)oc2cc(O)cc(O)c12 [quercetin, 3,3′,4′,5,7-Pentahydroxyflavone, reference compound] |  | similarly effective as TTF | 
COc1cc(-c2oc3cc(OC)c(OC)c(O)c3c(=O)c2O)ccc1O [TTF, 3,5,4′-trihydroxy-6,7,3′-trimethoxyflavone] | prevents the cytotoxic effect at nanomolar concentrations | moderated the increase in ROS-induced fluorescence | cell viability was not affected
